Earlier results, collected in patent US20250017946A1, “COMBINATION OF A BILE ACID AND A PHENYL BUTYRATE COMPOUND FOR THE TREATMENT OF NEURODEGENERATIVE DISEASES” (Amylyx Pharmaceuticals, Inc., priority 2021, published 2025).

System: patient populations
Details: for less common or rare adverse events / most commonly reported adverse events: individual component, multiple patient populations

## O=C(O)CCCc1ccccc1 [PB, sodium phenylbutyrate]
  less common or rare adverse events: nausea, vomiting, stomach upset, stomach pain, gastritis, headache, and skin rash
  most commonly reported adverse events: Menstrual irregularities, decreased appetite, sweat-like body odor, and bad taste

## C[C@H](CCC(=O)NCCS(=O)(=O)O)[C@H]1CC[C@H]2[C@@H]3[C@@H](O)C[C@@H]4C[C@H](O)CC[C@]4(C)[C@H]3CC[C@]12C [TURSO, tauroursodeoxycholic acid]
  less common or rare adverse events: skin rash and vomiting
  most commonly reported adverse events: mild diarrhea, abdominal and pain
Use of TURSO
  most common adverse reactions reported (≥1%): abdominal discomfort, abdominal pain, diarrhea, nausea, pruritus, and rash
